As usually defined, the inhibition is the share of the control response that was lost under treatment.

The text below walks through data of patent US20180370927A1, “MICROBIOCIDAL OXADIAZOLE DERIVATIVES” (SYNGENTA PARTICIPATIONS AG, priority 2015, published 2018).

This assay relates to Glomerella lacenarium (Colletotrichum lacenarium). Briefly: Glomerella lacenarium (Colletotrichum lacenarium) liquid culture / cucumber / preventative (anthracnose). To be noted: 20 ppm in the applied formulation, liquid culture in PDB, 24° C., 3 to 4 days after application, read-out: disease control (inhibition of growth, photometric) compared to untreated control. In kind it is cell-based. As to the method:
Mycelia fragments or conidia suspensions of a fungus prepared either freshly from liquid cultures of the fungus or from cryogenic storage, are directly mixed into nutrient broth. DMSO solutions of the test compound (max. 10 mg/ml) are diluted with 0.025% Tween20 by a factor of 50 and 10 μL of this solution is pipetted into a microtiter plate (96-well format). The nutrient broth containing the fungal spores/mycelia fragments is then added to give an end concentration of the tested compound. The test plates are incubated in the dark at 24° C. and 96% relative humidity. The inhibition of fungal growth is determined photometrically after 2 to 7 days, depending on the pathosystem, and percent antifungal activity relative to the untreated check is calculated.
Example 4: Fungicidal Activity Against Glomerella lacenarium (Colletotrichum lacenarium) Liquid Culture/Cucumber/Preventative (Anthracnose)
Conidia of the fungus from cryogenic storage are directly mixed into nutrient broth (PDB—potato dextrose broth). After placing a (DMSO) solution of test compound into a microtiter plate (96-well format), the nutrient broth containing the fungal spores is added. The test plates are incubated at 24° C. and the inhibition of growth is measured photometrically 3 to 4 days after application.
The following compounds at 20 ppm in the applied formulation give at least 80% disease control in this test when compared to untreated control under the same conditions, which show extensive disease development.
Regarding `O=C(Nc1ccc(-c2noc(C(F)(F)F)n2)cc1)C(=O)N(Cc1ccc2c(c1)OCO2)CC1OCCO1` [Compound 4.16, N′-(1,3-benzodioxol-5-ylmethyl)-N′-(1,3-dioxolan-2-ylmethyl)-N-[4-[5-(trifluoromethyl)-1,2,4-oxadiazol-3-yl]phenyl]oxamide], the inhibition at 20 ppm was at least 80%.

In the case of `CN(C)C(=O)C(=O)N(Cc1ccc(-c2noc(C(F)(F)F)n2)cc1)OCc1ccc(Cl)cc1` [Compound 4.33, N′-[(4-chlorophenyl)methoxy]-N,N-dimethyl-N′-[[4-[5-(trifluoromethyl)-1,2,4-oxadiazol-3-yl]phenyl]methyl] oxamide], the inhibition at 20 ppm was at least 80%.

For the compound `CC(=O)C(=O)NCc1ccc(-c2noc(C(F)(F)F)n2)cc1Cl` [Compound 1.60, N-[[2-chloro-4-[5-(trifluoromethyl)-1,2,4-oxadiazol-3-yl]phenyl]methyl]-2-oxo-propanamide], the inhibition at 20 ppm was at least 80%. Regarding `CC(C)(C)CNC(=O)C(=O)NCc1ccc(-c2noc(C(F)(F)F)n2)cc1` [Compound 4.45, N′-(2,2-dimethylpropyl)-N-[[4-[5-(trifluoromethyl)-1,2,4-oxadiazol-3-yl]phenyl]methyl] oxamide], the inhibition at 20 ppm is at least 80%.

Take `CCCC(=O)C(=O)N(Cc1ccc(-c2noc(C(F)(F)F)n2)cc1)OCc1ccc(Cl)cc1` [Compound 1.24, N-[(4-chlorophenyl)methoxy]-2-oxo-N-[[4-[5-(trifluoromethyl)-1,2,4-oxadiazol-3-yl]phenyl]methyl]pentanamide]: the inhibition at 20 ppm was at least 80%. The same measure for `NC(=O)C(=O)NCc1ccc(-c2noc(C(F)(F)F)n2)cc1F` [Compound 4.82, N′-[[2-fluoro-4-[5-(trifluoromethyl)-1,2,4-oxadiazol-3-yl]phenyl]methyl] oxarnide]: at least 80%; for `NC(=O)C(=O)NCc1ccc(-c2noc(C(F)(F)F)n2)c(F)c1` [Compound 4.83, N′-[[3-fluoro-4-[5-(trifluoromethyl)-1,2,4-oxadiazol-3-yl]phenyl]methyl] oxamide]: at least 80%; for `CCCC(=O)C(=O)N(Cc1ccc(-c2noc(C(F)(F)F)n2)cc1)C(C)CC` (centres unmarked) [Compound 1.11, 2-oxo-N-sec-butyl-N-[[4-[5-(trifluoromethyl)-1,2,4-oxadiazol-3-yl]phenyl]methyl]pentanamide]: at least 80%. Consider `CCCON(Cc1ccc(-c2noc(C(F)(F)F)n2)cc1)C(=O)C(=O)CCC` [Compound 1.7, 2-oxo-N-propoxy-N-[[4-[5-(trifluoromethyl)-1,2,4-oxadiazol-3-yl]phenyl]methyl]pentanamide], for which the inhibition at 20 ppm was at least 80%.

`CC(=O)C(=O)NCc1ccc(-c2noc(C(F)(F)F)n2)cn1` [Compound 1.28, 2-oxo-N-[[5-[5-(trifluoromethyl)-1,2,4-oxadiazol-3-yl]-2-pyridyl]methyl]propanamide]: the inhibition at 20 ppm was at least 80%. Take `CCCC(=O)C(=O)N(Cc1ccc(-c2noc(C(F)(F)F)n2)cc1)OCC=C(Cl)Cl` [Compound 1.23, N-(3,3-dichloro-allyloxy)-2-oxo-N-[[4-[5-(trifluoromethyl)-1,2,4-oxadiazol-3-yl]phenyl]methyl]pentanamide]: the inhibition at 20 ppm was at least 80%.
